According to patent publication US11655246B2, “Aminothiazole compounds as inhibitors of CTPS1” (STEP PHARMA S.A.S., priority 2017, dated 2023):
Where “and” joins values, the source holds several entries; their conditions need not be identical. Identical values can stand only once.

target: T1, human CTPS1 (Homo sapiens, UniProt P17812); assay: Human CTPS1 enzyme inhibition (ADP-Glo Max assay); format: biochemical; conditions: Table 17, 25° C., read-out: CTPS1 (Human CTPS1 Enzyme Inhibition data grouped by potency range)
T1 construct: purchased Proteros biostructures GmbH
T1 sequence (P17812 1-591): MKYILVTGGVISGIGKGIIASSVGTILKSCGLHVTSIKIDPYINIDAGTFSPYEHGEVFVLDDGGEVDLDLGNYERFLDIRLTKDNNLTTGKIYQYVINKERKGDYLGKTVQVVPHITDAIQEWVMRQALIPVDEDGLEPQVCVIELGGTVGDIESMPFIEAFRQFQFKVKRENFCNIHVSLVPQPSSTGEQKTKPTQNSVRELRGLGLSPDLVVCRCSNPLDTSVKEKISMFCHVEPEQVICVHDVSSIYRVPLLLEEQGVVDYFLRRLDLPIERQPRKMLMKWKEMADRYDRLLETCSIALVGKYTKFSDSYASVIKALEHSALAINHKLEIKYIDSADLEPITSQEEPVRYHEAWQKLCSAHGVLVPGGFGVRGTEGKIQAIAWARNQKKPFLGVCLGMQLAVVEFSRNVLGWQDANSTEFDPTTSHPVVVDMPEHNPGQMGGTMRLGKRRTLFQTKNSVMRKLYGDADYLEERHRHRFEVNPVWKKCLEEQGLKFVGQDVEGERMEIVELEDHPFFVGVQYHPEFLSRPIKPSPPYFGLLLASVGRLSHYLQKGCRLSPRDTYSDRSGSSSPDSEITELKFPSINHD
Experimental: The enzyme inhibitory activities of compounds invented against the target of interest were determined using the ADP-Glo™ Max assay (Promega, UK). Assays for human CTPS1 were performed in 1× assay buffer containing 50 mM Tris, 10 mM MgCl2, 0.01% Tween-20, pH to 8.0 accordingly. Finally, immediately before use, L-cysteine was added to the 1× assay buffer to a final concentration of 2 mM. All reagents are from Sigma-Aldrich unless specified otherwise.
3× human CTPS1 protein was prepared in 1× assay buffer to the final working protein concentration required for the reaction. A 2 uL volume per well of 3× human CTPS1 protein was mixed with 2 uL per well of 3× test compound (compound prepared in 1× assay buffer to an appropriate final 3× compound concentration respective to the concentration response curve designed for the compounds under test) for 10 minutes at 25° C. […] ADP-Glo™ Max reagent was added for 60 minutes (6 uL per well) and subsequently ADP-Glo™ Max development reagent was added for 60 minutes (12 uL per well) prior to signal detection in a microplate reader (EnVision® Multilabel Reader, Perkin Elmer). Following each reagent addition over the course of the assay, assay plates were pulse centrifuged for 30 seconds at 500 rpm.
In all cases, the enzyme converts ATP to ADP and the ADP-Glo™ Max reagent subsequently depletes any remaining endogenous ATP in the reaction system. The ADP-Glo™ Max detection reagent converts the ADP that has been enzymatically produced back into ATP and using ATP as a substrate together with luciferin for the enzyme luciferase, light is generated which produces a detectable luminescence. […] The percentage inhibition produced by each concentration of compound was calculated using the equation shown below: […]

`CCC(C(=O)Nc1ccc(-c2cncc(OC(F)F)c2)cn1)c1csc(NS(=O)(=O)C2CC2)n1` (stereo not shown) [T186] and `CCC(C(=O)Nc1ccc(-c2cncc(OC(F)F)c2)cc1)c1csc(NS(=O)(=O)C2CC2)n1` (stereo not shown) [T210] cannot be ordered by IC50: under 100 nM for the first, under 100 nM for the second.

`CCC(C(=O)Nc1ccc(-c2cncc(Cl)n2)cn1)c1csc(NS(=O)(=O)C2CC2)n1` (stereo not shown) [T187] and `COC(C(=O)Nc1ccc(-c2cncc(C(F)(F)F)n2)cn1)c1csc(NS(=O)(=O)C2CC2)n1` (stereo not shown) [T214] cannot be ordered by IC50: under 100 nM for the first, under 100 nM for the second.

`CCOc1cncc(-c2ccc(NC(=O)C(CC)c3csc(NS(=O)(=O)C4CC4)n3)cc2)n1` (stereo not shown) [T189] and `CCOc1cncc(-c2ccc(NC(=O)C(C)c3csc(NS(=O)(=O)C4CC4)n3)cc2)n1` (stereo not shown) [T192] cannot be ordered by IC50: under 100 nM for the first, under 100 nM for the second.

`COCCC(C(=O)Nc1ccc(-c2cncc(OC)n2)cc1)c1csc(NS(=O)(=O)C2CC2)n1` (stereo not shown) [T190] and `COCCC(C(=O)Nc1ccc(-c2cncc(F)c2)cc1)c1csc(NS(=O)(=O)C2CC2)n1` (stereo not shown) [T191] cannot be ordered by IC50: under 100 nM for the first, under 100 nM for the second.

`CCC(C(=O)Nc1ccc(-c2cncc(C(F)(F)F)c2)cc1)c1csc(NS(=O)(=O)C2CC2)n1` (stereo not shown) [T193] and `CCC(C(=O)Nc1ccc(-c2cncc(C#N)c2)cc1)c1csc(NS(=O)(=O)C2CC2)n1` (stereo not shown) [T194] cannot be ordered by IC50: under 100 nM for the first, under 100 nM for the second.

`CCC(C(=O)Nc1ccc(-c2cncc(OCC(F)(F)F)n2)cc1)c1csc(NS(=O)(=O)C2CC2)n1` (stereo not shown) [T195] and `CCC(C(=O)Nc1ccc(-c2cncc(OCC(F)(F)F)n2)cc1F)c1csc(NS(=O)(=O)C2CC2)n1` (stereo not shown) [T207] cannot be ordered by IC50: under 100 nM for the first, under 100 nM for the second.

`CCC(C(=O)Nc1ccc(-c2cnccn2)cc1F)c1csc(NS(=O)(=O)C2CC2)n1` (stereo not shown) [T196] and `CCC(C(=O)Nc1ccc(-c2cccnc2)cc1F)c1csc(NS(=O)(=O)C2CC2)n1` (stereo not shown) [T201] cannot be ordered by IC50: under 100 nM for the first, under 100 nM for the second.

`CCC(C(=O)Nc1ccc(-c2cncc(C(F)(F)F)n2)cc1F)c1csc(NS(=O)(=O)C2CC2)n1` (stereo not shown) [T197] and `CCC(C(=O)Nc1ccc(-c2cncc(OC)n2)cc1F)c1csc(NS(=O)(=O)C2CC2)n1` (stereo not shown) [T208] cannot be ordered by IC50: under 100 nM for the first, under 100 nM for the second.

`CCOc1cncc(-c2ccc(NC(=O)C(CC)c3csc(NS(=O)(=O)C4CC4)n3)c(F)c2)n1` (stereo not shown) [T198] and `CCOc1cncc(-c2ccc(NC(=O)C(CC)c3csc(NS(=O)(=O)C4CC4)n3)c(F)c2)c1` (stereo not shown) [T199] cannot be ordered by IC50: under 100 nM for the first, under 100 nM for the second.

`CCC(C(=O)Nc1ccc(-c2cncc(F)c2)cc1F)c1csc(NS(=O)(=O)C2CC2)n1` (stereo not shown) [T200] and `CCC(C(=O)Nc1ccc(-c2cncc(Cl)c2)cc1F)c1csc(NS(=O)(=O)C2CC2)n1` (stereo not shown) [T203] cannot be ordered by IC50: under 100 nM for the first, under 100 nM for the second.

`CCC(C(=O)Nc1ccc(-c2cncc(C#N)c2)cc1F)c1csc(NS(=O)(=O)C2CC2)n1` (stereo not shown) [T202] and `CCC(C(=O)Nc1ccc(-c2cncc(OC(F)F)c2)cc1F)c1csc(NS(=O)(=O)C2CC2)n1` (stereo not shown) [T209] cannot be ordered by IC50: under 100 nM for the first, under 100 nM for the second.

`CCOc1cncc(-c2ccc3c(c2)CCN3C(=O)C(CC)c2csc(NS(=O)(=O)C3CC3)n2)n1` (stereo not shown) [T206] and `CCC(C(=O)Nc1ccc(-c2cncc(C3CC3)n2)cc1)c1csc(NS(=O)(=O)C2CC2)n1` (stereo not shown) [T291] cannot be ordered by IC50: under 100 nM for the first, under 100 nM for the second.

`CCC(C(=O)Nc1ccc(-c2cncc(OCC(F)(F)F)c2)cc1F)c1csc(NS(=O)(=O)C2CC2)n1` (stereo not shown) [T212] and `CCC(C(=O)Nc1ccc(-c2cccnc2)cc1Cl)c1csc(NS(=O)(=O)C2CC2)n1` (stereo not shown) [T221] cannot be ordered by IC50: under 100 nM for the first, under 100 nM for the second.

`O=C(Nc1ccc(-c2cccnc2)cc1)C1CCc2sc(NS(=O)(=O)C3CC3)nc21` (stereo not shown) [T213] and `O=C(Nc1ccc(-c2cncc(F)c2)cc1)C1CCc2sc(NS(=O)(=O)C3CC3)nc21` (stereo not shown) [T218] fall in the same range of IC50: 100 to 1000 nM for the first, 100 to 1000 nM for the second.

First: N#Cc1cncc(-c2ccc(NC(=O)C3CCc4sc(NS(=O)(=O)C5CC5)nc43)cc2)c1 (stereo not shown) [T217]
Second: Cc1sc(NS(=O)(=O)C2CC2)nc1C(C)(C)C(=O)Nc1ccc(-c2cncc(Cl)c2)cc1 [T314]
The IC50 of the first is lower: under 100 nM for the first, 100 to 1000 nM for the second. The first is the more potent here.

`COC(C(=O)Nc1ccc(-c2cccnc2)cc1)c1csc(NS(=O)(=O)C2CC2)n1` (stereo not shown) [T219] and `COC(C(=O)Nc1ccc(-c2cccnc2)cc1F)c1csc(NS(=O)(=O)C2CC2)n1` (stereo not shown) [T220] cannot be ordered by IC50: under 100 nM for the first, under 100 nM for the second.

First: CC(C)(C(=O)Nc1ccc(-c2cnccn2)cc1F)c1csc(NS(=O)(=O)C2CC2)n1 [T274]
Second: Cc1ncc(-c2ccc(NC(=O)C(C)(C)c3csc(NS(=O)(=O)C4CC4)n3)cc2)nc1Cl [T277]
The IC50 of the first is lower: under 100 nM for the first, 100 to 1000 nM for the second.

`CCC(C(=O)N(C)c1ccc(-c2cccnc2)cc1)c1csc(NS(=O)(=O)C2CC2)n1` (stereo not shown) [T315] and `CCC(C(=O)N(C)c1ccc(-c2cncc(C#N)c2)cc1)c1csc(NS(=O)(=O)C2CC2)n1` (stereo not shown) [T316] fall in the same range of IC50: 100 to 1000 nM for the first, 100 to 1000 nM for the second.

`CCOc1cncc(-c2ccc(NC(=O)C(C)(C)c3nc(NS(=O)(=O)C4CC4)sc3C)cc2)n1` [T317] showed an IC50 of 100 to 1000 nM.

In the case of `CCC(C(=O)Nc1ccc(-c2cncc(OCC(F)(F)F)c2)cc1)c1csc(NS(=O)(=O)C2CC2)n1` (stereo not shown) [T211], the IC50 is reported as < 100 nM and 100 to 1000 nM.

same assay, conditions: Table 18, additional potency data, 25° C., read-out: CTPS1 (Human CTPS1 Enzyme Inhibition data grouped by potency range)

`CCOc1cncc(-c2ccc(NC(=O)C(NC(C)=O)c3csc(NS(=O)(=O)C4CC4)n3)cc2)n1` (stereo not shown) [T326, 2-acetamido-2-(2-(cyclopropanesulfonamido)thiazol-4-yl)-N-(4-(6-ethoxypyrazin-2-yl)phenyl)acetamide] and `CCOc1cncc(-c2ccc(NC(=O)C(NC(=O)OC)c3csc(NS(=O)(=O)C4CC4)n3)cc2)n1` (stereo not shown) [T327, methyl (1-(2-(cyclopropanesulfonamido)thiazol-4-yl)-2-((4-(6-ethoxypyrazin-2-yl)phenyl)amino)-2-oxoethyl)carbamate] cannot be ordered by IC50: under 100 nM for the first, under 100 nM for the second.

`CCOc1cncc(-c2ccc(NC(=O)C(c3csc(NS(=O)(=O)C4CC4)n3)N(C)C)cc2)n1` (stereo not shown) [T328, 2-(2-(cyclopropanesulfonamido)thiazol-4-yl)-2-(dimethylamino)-N-(4-(6-ethoxypyrazin-2-yl)phenyl)acetamide] and `CCOc1cncc(-c2ccc(NC(=O)C(CCO)c3csc(NS(=O)(=O)C4CC4)n3)cc2)n1` (stereo not shown) [T329, 2-(2-(cyclopropanesulfonamido)thiazol-4-yl)-N-(4-(6-ethoxypyrazin-2-yl)phenyl)-4-hydroxybutanamide] cannot be ordered by IC50: under 100 nM for the first, under 100 nM for the second.

Compared with `COCCS(=O)(=O)Nc1nc(C(C)(C)C(=O)Nc2ccc(-c3cncc(C(F)(F)F)n3)cn2)cs1` [T332, 2-(2-((2-methoxyethyl)sulfonamido)thiazol-4-yl)-2-methyl-N-(5-(6-(trifluoromethyl)pyrazin-2-yl)pyridin-2-yl)propanamide], `CC(C)(O)c1cncc(-c2ccc(NC(=O)C(C)(C)c3csc(NS(=O)(=O)C4CC4)n3)nc2)n1` [T338, 2-(2-(cyclopropanesulfonamido)thiazol-4-yl)-N-(5-(6-(2-hydroxypropan-2-yl)pyrazin-2-yl)pyridin-2-yl)-2-methylpropanamide] is higher in IC50: 100 to 1000 nM for the first, 1000 to 10000 nM for the second. The first is the more potent here.

First: CC(C)(C(=O)Nc1ccc(-c2cccnc2)cc1)c1csc(NS(=O)(=O)C2CCCC2)n1 [T333, 2-(2-(cyclopentanesulfonamido)thiazol-4-yl)-2-methyl-N-(4-(pyridin-3-yl)phenyl)propanamide]
Second: CCOc1cncc(-c2ccc(NC(=O)C(C)(C)c3csc(NS(=O)(=O)C4CCCC4)n3)cc2)n1 [T335, 2-(2-(cyclopentanesulfonamido)thiazol-4-yl)-N-(4-(6-ethoxypyrazin-2-yl)phenyl)-2-methylpropanamide]
The IC50 of the first is higher: 1000 to 10000 nM for the first, 100 to 1000 nM for the second.

`CC(C)(C(=O)Nc1ccc(-c2cncc(C(F)(F)F)n2)cc1)c1csc(NS(=O)(=O)C2CCCC2)n1` [T334, 2-(2-(cyclopentanesulfonamido)thiazol-4-yl)-2-methyl-N-(4-(6-(trifluoromethyl)pyrazin-2-yl)phenyl)propanamide] and `CC(C)c1cncc(-c2ccc(NC(=O)C(C)(C)c3csc(NS(=O)(=O)C4CC4)n3)nc2)n1` [T336, 2-(2-(cyclopropanesulfonamido)thiazol-4-yl)-N-(5-(6-isopropylpyrazin-2-yl)pyridin-2-yl)-2-methylpropanamide] fall in the same range of IC50: 100 to 1000 nM for the first, 100 to 1000 nM for the second.

With `CCOc1cncc(-c2ccc(NC(=O)C(C)(C)c3csc(NS(=O)(=O)C4CC4)n3)nc2)c1` [T337, 2-(2-(cyclopropanesulfonamido)thiazol-4-yl)-N-(5′-ethoxy-[3,3′-bipyridin]-6-yl)-2-methylpropanamide] the IC50 was under 100 nM.
